According to the NIST ThermoML archive (doi:10.1016/j.jct.2012.01.019):
Numbers after ± are expanded uncertainties.

Test: activity coefficient (dimensionless); of the first substance listed, at infinite dilution; xn = mol fraction of the nth substance listed
Conditions: 101 kPa, Liquid, Chromatography, x1 = 0

Row | Compound | activity coefficient (318.15 K) | activity coefficient (328.15 K) | activity coefficient (338.15 K) | activity coefficient (348.15 K) | activity coefficient (358.15 K) | activity coefficient (368.15 K)
1 | C=CCCCCC [1-heptene] + COCC[N+]1(C)CCCCC1.O=S(=O)([N-]S(=O)(=O)C(F)(F)F)C(F)(F)F | 12.4 ± 0.8 | 11.9 ± 0.8 | 11.4 ± 0.8 | 10.8 ± 0.7 | 10.4 ± 0.7 | 9.99 ± 0.68
2 | CCC[N+](=O)[O-] [1-nitropropane] + COCC[N+]1(C)CCCCC1.O=S(=O)([N-]S(=O)(=O)C(F)(F)F)C(F)(F)F | 0.724 ± 0.048 | 0.725 ± 0.048 | 0.726 ± 0.048 | 0.727 ± 0.048 | 0.727 ± 0.048 | 0.728 ± 0.048
3 | CCC(=O)OC [methyl propanoate] + COCC[N+]1(C)CCCCC1.O=S(=O)([N-]S(=O)(=O)C(F)(F)F)C(F)(F)F | 0.888 ± 0.057 | 0.904 ± 0.057 | 0.92 ± 0.058 | 0.936 ± 0.059 | 0.95 ± 0.06 | 0.966 ± 0.061
4 | CCC(=O)CC [pentan-3-one] + COCC[N+]1(C)CCCCC1.O=S(=O)([N-]S(=O)(=O)C(F)(F)F)C(F)(F)F | 0.785 ± 0.051 | 0.801 ± 0.052 | 0.821 ± 0.053 | 0.838 ± 0.054 | 0.852 ± 0.055 | 0.869 ± 0.056
5 | CCCCCCCC [octane] + COCC[N+]1(C)CCCCC1.O=S(=O)([N-]S(=O)(=O)C(F)(F)F)C(F)(F)F | 35.4 ± 1.6 | 32.6 ± 1.5 | 30 ± 1.4 | 27.6 ± 1.3 | 25.6 ± 1.2 | 23.8 ± 1.1
6 | COC(C)=O [methyl ethanoate] + COCC[N+]1(C)CCCCC1.O=S(=O)([N-]S(=O)(=O)C(F)(F)F)C(F)(F)F | 0.7 ± 0.047 | 0.714 ± 0.048 | 0.726 ± 0.048 | 0.74 ± 0.049 | 0.751 ± 0.049 | 0.763 ± 0.05
7 | C1COCCO1 [1,4-dioxane] + COCC[N+]1(C)CCCCC1.O=S(=O)([N-]S(=O)(=O)C(F)(F)F)C(F)(F)F | 0.616 ± 0.043 | 0.636 ± 0.044 | 0.654 ± 0.045 | 0.673 ± 0.046 | 0.687 ± 0.046 | 0.705 ± 0.047
8 | C=CCCCCCCCC [1-decene] + COCC[N+]1(C)CCCCC1.O=S(=O)([N-]S(=O)(=O)C(F)(F)F)C(F)(F)F | 36.2 ± 2.5 | 33.7 ± 2.3 | 31.4 ± 2.1 | 29.2 ± 2 | 27.4 ± 1.9 | 26 ± 1.8
9 | CCC(C)(C)C [2,2-dimethylbutane] + COCC[N+]1(C)CCCCC1.O=S(=O)([N-]S(=O)(=O)C(F)(F)F)C(F)(F)F | 13.5 ± 0.6 | 12.9 ± 0.6 | 12.4 ± 0.6 | 11.8 ± 0.5 | 11.3 ± 0.5 | 10.9 ± 0.5
10 | CO [methanol] + COCC[N+]1(C)CCCCC1.O=S(=O)([N-]S(=O)(=O)C(F)(F)F)C(F)(F)F | 1.37 ± 0.09 | 1.26 ± 0.08 | 1.17 ± 0.07 | 1.08 ± 0.07 | 1 ± 0.06 | 0.942 ± 0.059
11 | CCC(C)(C)OC [2-methoxy-2-methylbutane] + COCC[N+]1(C)CCCCC1.O=S(=O)([N-]S(=O)(=O)C(F)(F)F)C(F)(F)F | 3.74 ± 0.25 | 3.74 ± 0.25 | 3.73 ± 0.25 | 3.73 ± 0.25 | 3.73 ± 0.25 | 3.72 ± 0.25
12 | CC#N [acetonitrile] + COCC[N+]1(C)CCCCC1.O=S(=O)([N-]S(=O)(=O)C(F)(F)F)C(F)(F)F | 0.471 ± 0.037 | 0.471 ± 0.037 | 0.473 ± 0.037 | 0.473 ± 0.037 | 0.474 ± 0.037 | 0.475 ± 0.037
13 | c1ccncc1 [pyridine] + COCC[N+]1(C)CCCCC1.O=S(=O)([N-]S(=O)(=O)C(F)(F)F)C(F)(F)F | 0.548 ± 0.04 | 0.555 ± 0.04 | 0.562 ± 0.04 | 0.57 ± 0.041 | 0.577 ± 0.041 | 0.583 ± 0.041
14 | C1CCCCCCC1 [cyclooctane] + COCC[N+]1(C)CCCCC1.O=S(=O)([N-]S(=O)(=O)C(F)(F)F)C(F)(F)F | 18 ± 1.2 | 16.6 ± 1.1 | 15.4 ± 1.1 | 14.3 ± 1 | 13.2 ± 0.9 | 12.4 ± 0.8
15 | C1CCOC1 [tetrahydrofuran] + COCC[N+]1(C)CCCCC1.O=S(=O)([N-]S(=O)(=O)C(F)(F)F)C(F)(F)F | 0.76 ± 0.05 | 0.773 ± 0.051 | 0.787 ± 0.051 | 0.799 ± 0.052 | 0.809 ± 0.052 | 0.821 ± 0.053
16 | CC(C)O [propan-2-ol] + COCC[N+]1(C)CCCCC1.O=S(=O)([N-]S(=O)(=O)C(F)(F)F)C(F)(F)F | 1.92 ± 0.13 | 1.76 ± 0.12 | 1.61 ± 0.11 | 1.47 ± 0.1 | 1.37 ± 0.09 | 1.28 ± 0.08

Row | Compound | activity coefficient (318.15 K) | activity coefficient (328.15 K) | activity coefficient (338.15 K) | activity coefficient (348.15 K) | activity coefficient (358.15 K) | activity coefficient (368.15 K)
17 | CCCC(C)=O [pentan-2-one] + COCC[N+]1(C)CCCCC1.O=S(=O)([N-]S(=O)(=O)C(F)(F)F)C(F)(F)F | 0.786 ± 0.051 | 0.801 ± 0.052 | 0.813 ± 0.053 | 0.825 ± 0.053 | 0.837 ± 0.054 | 0.849 ± 0.054
18 | CC1CCCCC1 [methylcyclohexane] + COCC[N+]1(C)CCCCC1.O=S(=O)([N-]S(=O)(=O)C(F)(F)F)C(F)(F)F | 13.5 ± 0.6 | 12.7 ± 0.6 | 12 ± 0.6 | 11.2 ± 0.5 | 10.6 ± 0.5 | 10.2 ± 0.5
19 | Cc1cccc(C)c1 [1,3-dimethylbenzene] + COCC[N+]1(C)CCCCC1.O=S(=O)([N-]S(=O)(=O)C(F)(F)F)C(F)(F)F | 1.8 ± 0.12 | 1.81 ± 0.12 | 1.82 ± 0.12 | 1.83 ± 0.12 | 1.85 ± 0.12 | 1.86 ± 0.13
20 | CC(C)CC(C)(C)C [2,2,4-trimethylpentane] + COCC[N+]1(C)CCCCC1.O=S(=O)([N-]S(=O)(=O)C(F)(F)F)C(F)(F)F | 23.7 ± 1.1 | 22.3 ± 1 | 20.9 ± 1 | 19.7 ± 0.9 | 18.5 ± 0.9 | 17.6 ± 0.8
21 | CCCCC [pentane] + COCC[N+]1(C)CCCCC1.O=S(=O)([N-]S(=O)(=O)C(F)(F)F)C(F)(F)F | 11.8 ± 0.5 | 11.3 ± 0.5 | 10.8 ± 0.5 | 10.3 ± 0.5 | 9.86 ± 0.45 | 9.48 ± 0.44
22 | CCC(C)CC [3-methylpentane] + COCC[N+]1(C)CCCCC1.O=S(=O)([N-]S(=O)(=O)C(F)(F)F)C(F)(F)F | 14.7 ± 0.7 | 13.9 ± 0.6 | 13.2 ± 0.6 | 12.5 ± 0.6 | 11.9 ± 0.6 | 11.5 ± 0.5
23 | CCC(C)O (stereo not given) [butan-2-ol] + COCC[N+]1(C)CCCCC1.O=S(=O)([N-]S(=O)(=O)C(F)(F)F)C(F)(F)F | 2.26 ± 0.15 | 2.07 ± 0.14 | 1.89 ± 0.13 | 1.74 ± 0.12 | 1.62 ± 0.11 | 1.52 ± 0.1
24 | C=C(C)c1ccccc1 [(1-methylethenyl)benzene] + COCC[N+]1(C)CCCCC1.O=S(=O)([N-]S(=O)(=O)C(F)(F)F)C(F)(F)F | – | 1.61 ± 0.11 | 1.66 ± 0.11 | 1.7 ± 0.11 | 1.74 ± 0.12 | 1.78 ± 0.12
25 | C#CCCCCCC [1-octyne] + COCC[N+]1(C)CCCCC1.O=S(=O)([N-]S(=O)(=O)C(F)(F)F)C(F)(F)F | 6.02 ± 0.41 | 5.92 ± 0.4 | 5.85 ± 0.4 | 5.77 ± 0.39 | 5.7 ± 0.39 | 5.63 ± 0.38
26 | CCCCCCCCCC [decane] + COCC[N+]1(C)CCCCC1.O=S(=O)([N-]S(=O)(=O)C(F)(F)F)C(F)(F)F | 73.9 ± 3.5 | 66.5 ± 3.1 | 59.5 ± 2.8 | 53.7 ± 2.5 | 48.8 ± 2.3 | 45 ± 2.1
27 | CCCOCCC [dipropyl ether] + COCC[N+]1(C)CCCCC1.O=S(=O)([N-]S(=O)(=O)C(F)(F)F)C(F)(F)F | 6.45 ± 0.44 | 6.28 ± 0.43 | 6.13 ± 0.42 | 5.98 ± 0.41 | 5.86 ± 0.4 | 5.75 ± 0.39
28 | O [water] + COCC[N+]1(C)CCCCC1.O=S(=O)([N-]S(=O)(=O)C(F)(F)F)C(F)(F)F | 3.35 ± 0.23 | 2.93 ± 0.2 | 2.62 ± 0.18 | 2.33 ± 0.16 | 2.07 ± 0.14 | 1.87 ± 0.13
29 | CC(C)OC(C)C [diisopropyl ether] + COCC[N+]1(C)CCCCC1.O=S(=O)([N-]S(=O)(=O)C(F)(F)F)C(F)(F)F | 6.13 ± 0.42 | 6.03 ± 0.41 | 5.94 ± 0.4 | 5.84 ± 0.4 | 5.76 ± 0.39 | 5.69 ± 0.39
30 | COC(C)(C)C [2-methoxy-2-methylpropane] + COCC[N+]1(C)CCCCC1.O=S(=O)([N-]S(=O)(=O)C(F)(F)F)C(F)(F)F | 2.56 ± 0.17 | 2.59 ± 0.18 | 2.63 ± 0.18 | 2.66 ± 0.18 | 2.69 ± 0.18 | 2.73 ± 0.19
31 | CCCCO [butan-1-ol] + COCC[N+]1(C)CCCCC1.O=S(=O)([N-]S(=O)(=O)C(F)(F)F)C(F)(F)F | 2.72 ± 0.19 | 2.45 ± 0.17 | 2.22 ± 0.15 | 2.01 ± 0.14 | 1.85 ± 0.12 | 1.71 ± 0.11
